Test results taken from patent US8927717B1, “Thiochromeno[2,3-c]quinolin-12-one derivatives, preparation method and application thereof” (National Defense Medical Center, priority 2014, dated 2015).

Experiments:
[1] = test system: SF-539; format: cell-based; settings: CNS cancer; 10^−5 molar; 48 hours; SRB
[2] = test system: MDA-MB-486; format: cell-based; settings: Breast cancer; 10^−5 molar; 48 hours; SRB
[3] = test system: TK-10; format: cell-based; settings: Renal cancer; 10^−5 molar; 48 hours; SRB
[4] = test system: HT29; format: cell-based; settings: Colon cancer; 10^−5 molar; 48 hours; SRB
[5] = test system: SK-OV-3; format: cell-based; settings: Ovarian cancer; 10^−5 molar; 48 hours; SRB
[6] = test system: CAKI-1; format: cell-based; settings: Renal cancer; 10^−5 molar; 48 hours; SRB
[7] = test system: HCT-15; format: cell-based; settings: Colon cancer; 10^−5 molar; 48 hours; SRB
[8] = test system: SW-620; format: cell-based; settings: Colon cancer; 10^−5 molar; 48 hours; SRB
[9] = test system: UACC-257; format: cell-based; settings: Melanoma; 10^−5 molar; 48 hours; SRB
[10] = test system: UO-31; format: cell-based; settings: Renal cancer; 10^−5 molar; 48 hours; SRB
[11] = test system: NCI/ADR-RES; format: cell-based; settings: Ovarian cancer; 10^−5 molar; 48 hours; SRB
[12] = test system: SNB-75; format: cell-based; settings: CNS cancer; 10^−5 molar; 48 hours; SRB
[13] = test system: MDA-MB-435; format: cell-based; settings: Melanoma; 10^−5 molar; 48 hours; SRB
[14] = test system: OVCAR-4; format: cell-based; settings: Ovarian cancer; 10^−5 molar; 48 hours; SRB
[15] = test system: A549/ATCC; format: cell-based; settings: Non-small cell lung cancer; 10^−5 molar; 48 hours; SRB
[16] = test system: A498; format: cell-based; settings: Renal cancer; 10^−5 molar; 48 hours; SRB
[17] = test system: KM12; assay: cells; format: cell-based; settings: Colon cancer; 10^−5 molar; 48 hours; SRB
[18] = test system: HS 578T; format: cell-based; settings: Breast cancer; 10^−5 molar; 48 hours; SRB
[19] = test system: SN12C; format: cell-based; settings: Renal cancer; 10^−5 molar; 48 hours; SRB
[20] = test system: MOLT-4; format: cell-based; settings: Leukemia; 10^−5 molar; 48 hours; SRB
[21] = test system: IGROV1; format: cell-based; settings: Ovarian cancer; 10^−5 molar; 48 hours; SRB
[22] = test system: M14; format: cell-based; settings: Melanoma; 10^−5 molar; 48 hours; SRB
[23] = test system: HCC-2998; format: cell-based; settings: Colon cancer; 10^−5 molar; 48 hours; SRB
[24] = test system: COLO 205; format: cell-based; settings: Colon cancer; 10^−5 molar; 48 hours; SRB
[25] = test system: OVCAR-8; format: cell-based; settings: Ovarian cancer; 10^−5 molar; 48 hours; SRB
[26] = test system: SF-268; format: cell-based; settings: CNS cancer; 10^−5 molar; 48 hours; SRB
[27] = test system: MDA-MB-231/ATCC; format: cell-based; settings: Breast cancer; 10^−5 molar; 48 hours; SRB
[28] = test system: SR; format: cell-based; settings: Leukemia; 10^−5 molar; 48 hours; SRB
[29] = test system: SK-MEL-28; format: cell-based; settings: Melanoma; 10^−5 molar; 48 hours; SRB
[30] = test system: SF-295; format: cell-based; settings: CNS cancer; 10^−5 molar; 48 hours; SRB
[31] = test system: NCI-H226; format: cell-based; settings: Non-small cell lung cancer; 10^−5 molar; 48 hours; SRB
[32] = test system: HOP-62; format: cell-based; settings: Non-small cell lung cancer; 10^−5 molar; 48 hours; SRB
[33] = test system: SNB-19; format: cell-based; settings: CNS cancer; 10^−5 molar; 48 hours; SRB
[34] = test system: RPMI-8226; format: cell-based; settings: Leukemia; 10^−5 molar; 48 hours; SRB
[35] = test system: ACHN; format: cell-based; settings: Renal cancer; 10^−5 molar; 48 hours; SRB
[36] = test system: HL-60(TB); format: cell-based; settings: Leukemia; 10^−5 molar; 48 hours; SRB
[37] = test system: MCF7; format: cell-based; settings: Breast cancer; 10^−5 molar; 48 hours; SRB
[38] = test system: UACC-62; format: cell-based; settings: Melanoma; 10^−5 molar; 48 hours; SRB
[39] = test system: HCT-116; format: cell-based; settings: Colon cancer; 10^−5 molar; 48 hours; SRB
[40] = test system: PC-3; format: cell-based; settings: Prostate cancer; 10^−5 molar; 48 hours; SRB
[41] = test system: CCRF-CEM; format: cell-based; settings: Leukemia; 10^−5 molar; 48 hours; SRB
[42] = test system: U251; format: cell-based; settings: CNS cancer; 10^−5 molar; 48 hours; SRB
[43] = test system: OVCAR-3; format: cell-based; settings: Ovarian cancer; 10^−5 molar; 48 hours; SRB
[44] = test system: NCI-H460; format: cell-based; settings: Non-small cell lung cancer; 10^−5 molar; 48 hours; SRB
[45] = test system: 786-0; format: cell-based; settings: Renal cancer; 10^−5 molar; 48 hours; SRB
[46] = test system: LOX IMVI; format: cell-based; settings: Melanoma; 10^−5 molar; 48 hours; SRB
[47] = test system: NCI-H522; format: cell-based; settings: Non-small cell lung cancer; 10^−5 molar; 48 hours; SRB
[48] = test system: DU-145; format: cell-based; settings: Prostate cancer; 10^−5 molar; 48 hours; SRB
[49] = test system: NCI-H23; format: cell-based; settings: Non-small cell lung cancer; 10^−5 molar; 48 hours; SRB
[50] = test system: T-47D; format: cell-based; settings: Breast cancer; 10^−5 molar; 48 hours; SRB
[51] = test system: SK-MEL-5; format: cell-based; settings: Melanoma; 10^−5 molar; 48 hours; SRB
[52] = test system: OVCAR-5; format: cell-based; settings: Ovarian cancer; 10^−5 molar; 48 hours; SRB
[53] = test system: K-562; format: cell-based; settings: Leukemia; 10^−5 molar; 48 hours; SRB
[54] = test system: 60 cancer cell lines; assay: NCI 60-cell screen, SRB, whole panel (mean, delta, range); format: cell-based; settings: 10^−5 molar, 48 hours, SRB
[55] = test system: MALME-3M; format: cell-based; settings: Melanoma; 10^−5 molar; 48 hours; SRB
[56] = test system: RXF 393; format: cell-based; settings: Renal cancer; 10^−5 molar; 48 hours; SRB
[57] = test system: BT-549; format: cell-based; settings: Breast cancer; 10^−5 molar; 48 hours; SRB

CCC(CO)Nc1nc2ccccc2c2c(=O)c3cc(Cl)ccc3sc12 (stereo not drawn) [Compound N12, 10-Chloro-6-((1-hydroxybutan-2-yl)amino)-12H-thiochromeno[2,3-c]quinolin-12-one]
Growth percent SF-539 [1]: 83.86%
melting point: 203 to 204 °C
Growth percent MDA-MB-486 [2]: 80.85%
Growth percent TK-10 [3]: 77.45%
Growth percent HT29 [4]: 78.24%
Growth percent SK-OV-3 [5]: 58.93%
Growth percent CAKI-1 [6]: 59.29%
Growth percent HCT-15 [7]: 77.58%
Growth percent SW-620 [8]: 84.32%
Growth percent UACC-257 [9]: 95.71%
Growth percent UO-31 [10]: 51.01%
Growth percent NCI/ADR-RES [11]: 77.02%
Growth percent SNB-75 [12]: 31.01%
Growth percent MDA-MB-435 [13]: 92.11%
Growth percent OVCAR-4 [14]: 83.23%
Growth percent A549/ATCC [15]: 69.86%
Growth percent A498 [16]: 74.62%
Growth percent KM12 [17]: 82.37%
Growth percent HS 578T [18]: 52.66%
Growth percent SN12C [19]: 81.98%
Growth percent MOLT-4 [20]: 61.79%
Growth percent IGROV1 [21]: 66.54%
Growth percent M14 [22]: 85.38%
Growth percent HCC-2998 [23]: 99.61%
Growth percent COLO 205 [24]: 68.37%
Growth percent OVCAR-8 [25]: 68.74%
Growth percent SF-268 [26]: 76.71%
Growth percent MDA-MB-231/ATCC [27]: 58.29%
Growth percent SR [28]: 62.38%
Growth percent SK-MEL-28 [29]: 82.86%
Growth percent SF-295 [30]: 89.58%
Growth percent NCI-H226 [31]: 77.56%
Growth percent HOP-62 [32]: 55.91%
Growth percent SNB-19 [33]: 93.87%
Growth percent RPMI-8226 [34]: 73.50%
Growth percent ACHN [35]: 69.12%
Growth percent HL-60(TB) [36]: 96.29%
Growth percent MCF7 (Table 2: MCF) [37]: 40.92%
Growth percent UACC-62 [38]: 76.17%
Growth percent HCT-116 [39]: 73.42%
Growth percent PC-3 [40]: 58.35%
Growth percent CCRF-CEM [41]: 70.00%
Growth percent U251 [42]: 74.49%
Growth percent OVCAR-3 [43]: 96.34%
Growth percent NCI-H460 [44]: 83.78%
Growth percent 786-0 [45]: 82.86%
Growth percent LOX IMVI [46]: 79.25%
Growth percent NCI-H522 [47]: 64.07%
Growth percent DU-145 [48]: 87.04%
Growth percent NCI-H23 [49]: 81.25%
Growth percent T-47D [50]: 46.94%
Growth percent SK-MEL-5 [51]: 87.19%
Growth percent OVCAR-5 [52]: 88.01%
Growth percent K-562 [53]: 46.86%
Growth percent, Delta ([54]; delta over the cell panel): 42.51%
Growth percent, Mean ([54]; mean over the cell panel): 73.52%
Growth percent, Range ([54]; range over the cell panel): 68.60%
Growth percent MALME-3M [55]: 58.66%
Growth percent RXF 393 [56]: 71.61%
Growth percent BT-549 [57]: 85.96%
